Test results: US7745450B2, “Pyrazolo[4,3-d]pyrimidines, processes for their preparation and methods for therapy” (Institute of Experimental Botany, priority 2002, dated 2010)
Like-named read-outs stand apart in the source and are kept apart here.

Assays:
[1] = tested on: CEM (human lymphoblastoid leukemia); assay: In vitro cytotoxic activity, Calcein AM; format: cell-based; conditions: Homo sapiens, 72 h, three days
How it was run: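 CEM cells were seeded at 10^4/well in DMEM + 10% FBS and exposed to six concentrations from 200 to 0.2 μM, in triplicate, for 3 days at 37 °C and 5% CO2. Viable cells were then measured by Calcein AM fluorescence after 1 h loading.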

[2] = tested on: normal human lymphocytes; assay: Immunosuppressive activity, 3H-thymidine incorporation in concanavalin A activated lymphocytes; format: cell-based; conditions: Lymphocyte, 72 hours, [3H]-TdR, read-out: Human lymphocytes ED50
Method: Human heparinized peripheral blood was obtained from healthy volunteers by cubital vein punction. The blood was diluted in PBS (1:3) and mononuclear cells were separated by centrifugation in Ficoll-Hypaque density gradient (Pharmacia, 1.077 g/ml) at 2200 rpm for 30 minutes. Following centrifugation, lymphocytes were washed in PBS and resuspended in cell culture medium (RMPI 1640, 2 mM glutamine, 100 U/ml penicillin, 100 μg/ml streptomycin, 10% fetal calf serum and sodium bicarbonate).
The cells were diluted at target density of 1.100.000 cells/ml were added by pipette (180 μl) into 96/well microtiter plates. Four-fold dilutions of the intended test concentration were added at time zero in 20 μl aliquots to the microtiter plate wells. Usually, test compound was evaluated at six 4-fold dilutions. In routine testing, the highest well concentration was 266.7 μM. All drug concentrations were examined in duplicates. All wells with exception of unstimulated controls were activated with 50 μl of concanavalin A (25 μg/ml). Incubations of cells with test compounds lasted for 72 hours at 37° C., in 5% CO2 atmosphere and 100% humidity. At the end of incubation period, the cells were assayed by using the [^3H]-TdR:
Cell cultures were incubated with 0.5 μCi (20 μl of stock solution […]) per well for 6 hours at 37° C. and 5% CO2. The automated cell harvester was used to lyse cells in water and adsorb the DNA onto glass-fiber filters in the format of microtiter plate. The DNA incorporated [^3H]-TdR was retained on the filter while unincorporated material passes through. The filters were dried at room temperature overnight, sealed into a sample bag with 10-12 ml of scintillant. The amount of [^3H]-TdR present in each filter (in cpm) was determined by scintillation counting in a Betaplate liquid scintillation counter. The effective dose of immunosuppressant (ED) was calculated using the following equation: ED=(CCPMdrug exposed well/mean CCPMcontrol wells)×100%.

[3] = tested on: human diploid fibroblasts (HCA cells); assay: Inhibition of senescence, β-galactosidase staining of fibroblasts; format: cell-based; conditions: for SENESCENT CELLS (%) HCA25: HCA cells passage 25, β-galactosidase staining; for SENESCENT CELLS (%) HCA45: HCA cells passage 45, β-galactosidase staining; for SENESCENT CELLS (%) HCA80: HCA cells passage 80, β-galactosidase staining
Method: In this example, human diploid fibroblasts (HCA cells of various passage levels: passage 25—designated HCA25; passage 45—designated HCA45; passage 80—designated HCA80) were stained for β-galactosidase activity. The medium present on cultured cells was removed, the cells were washed twice in […], and fixed in 2-3 ml of fixing solution comprised of a 2% formaldehyde and 0.2% glutaraldehyde in PBS. The cells were incubated at room temperature for 5 minutes, then washed twice with PBS. The cells were then incubated at 37° C. […] In this experiment, senescent cells, but not other cells were stained blue due to the action of β-galactosidase on the substrate (FIG. 9).

[4] = molecular target: MMK1 protein kinase (Vicia faba, UniProt A0AAV1B7B8); assay: MMK1 protein kinase activity; format: biochemical
Sequence of MMK1 protein kinase (A0AAV1B7B8 1-394): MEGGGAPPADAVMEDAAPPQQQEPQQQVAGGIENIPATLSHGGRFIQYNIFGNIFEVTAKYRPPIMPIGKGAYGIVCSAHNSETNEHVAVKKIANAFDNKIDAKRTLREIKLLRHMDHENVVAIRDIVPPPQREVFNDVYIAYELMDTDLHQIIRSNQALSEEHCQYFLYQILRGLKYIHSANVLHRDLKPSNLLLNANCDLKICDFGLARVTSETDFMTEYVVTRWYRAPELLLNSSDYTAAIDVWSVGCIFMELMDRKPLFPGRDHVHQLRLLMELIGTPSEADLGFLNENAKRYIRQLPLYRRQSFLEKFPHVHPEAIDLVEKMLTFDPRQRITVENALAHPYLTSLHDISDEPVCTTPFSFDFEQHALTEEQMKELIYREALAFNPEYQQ
Method: Protein extraction and purification of pant CDK by binding to p13^suc1-beads or immunopurification with an antibody specific to the cdc2a-MS protein was carried out as described previously (Bögre et al. 1997, Plant Physiol. 113, 1997, 841-852). The MMK1 protein kinase was purified with a specific antibody from Vicia faba extracts as described by Bögre et al. 1997a, Plant Cell 9, 75-83). Protein kinase activity was measures as described above in Example 20. The quantification of radioactivity incorporated into histone H1 or myelin basic protein was undertaken using phosphoimager (FIG. 2).

[5] = tested on: B16; assay: In vitro cytotoxic activity, Calcein AM; format: cell-based; conditions: Mus musculus, B16, 72 h, three days
[6] = tested on: PHA-stimulated lymphocytes (PBMC); assay: Proliferation of PHA-stimulated lymphocytes (PBMC), flow cytometric cell count; format: cell-based, human; conditions: 96 hours, IL-2
Method: Peripheral blood mononuclear cells (PBMC): Human peripheral blood mononuclear cells were isolated by density gradient (Ficoll-Hypaque) (LSM, ICN Biomedicals Inc.). PBMC were stimulated with 5 μg/ml phytohemaglutinin A (PHA) (Sigma) during 24-48 hours in IMDM supplemented with 10% FCS at 37° C. After washing off the PHA, PBMC were incubated with interleukin-2 (IL-2) (10 U/ml) (Genzyme).
(§1) Cells were plated at 10000 per well in 200 μl IMDM medium and incubated with 0-50 μM of the novel compounds (Tab 8), by addition of drug directly to the culture medium and incubated at 37° C. for 96 hours (Tab 8). Absolute cell number was determined by addition of a known concentration Fluoresbrite microspheres (FITC) (Polysciences, Inc.). The absolute number of cells/well was calculated as: {(total number of beads added/well)/(number of beads measured)×(number of measured cells in the gate of interest)}. All analyses were performed with a FACScan (BD), using CELLQuest software (Becton Dickinson).
PHA-stimulated lymphocytes (PBMC) were tested for their cytotoxicity as one of the normal counterparts of the cell lines. Cells were grown for 96 hours in the presence of IL-2 and different concentrations of the novel compounds and cell number was counted on the flow cytometer.

[7] = tested on: myeloid leukemia KG1 cell line; assay: Cell proliferation of KG1, flow cytometric cell count; format: cell-based, human; conditions: 96 hours; for IC50: read-out: KG1 IC50
Method: (§2) Cell lines: Human leukemic cell lines were obtained from the American Type Culture Collection (ATCC, Rockville, Md., USA). They were cultured in Iscove's Modified Dulbecco's Medium (IMDM) supplemented with 10% heat inactivated fetal calf serum (FCS), 200 U/ml penicillin, 200 μg/ml streptomycin and 1 μg/ml amphotericin B. Cells were cultured in a 5% CO2-95% air fully humidified incubator. For effects on clonogenic output, 1000 cells/well were plated in duplicate in methylcellulose (0.9%), supplemented with 20% FCS for 14 days.
as §1
(§3) Response of the myeloid leukemia KG1 and T-lymphocyte leukemia Molt3 cell lines to the cytostatic effect of the novel compounds was determined using the above-mentioned standardized bead suspension that was used to determine the absolute cell number by flow cytometric (FCM) measurement. Cells were grown in the presence of increasing concentration of the novel compounds.
To determine reversibility of the effects of the novel compounds, cells were plated at 10000 per well and exposed to 0-50 μM of the compounds for the time indicated, followed by washing in phosphate-buffered saline (PBS) (Life Technologies) and reseeded into drug-free medium for 7 additional days. An identical set of cells was plated and exposed to the drugs for 7 additional days. After 7 days (168 hours), the relative cell number was assayed by flow cytometry.

[8] = tested on: T-lymphocyte leukemia Molt3 cell line; assay: Cell proliferation of Molt3, flow cytometric cell count; format: cell-based, human; conditions: 96 hours
Method: as §2, §1, §3

[9] = molecular target: cdk1/cyclin B (CDC2) (Homo sapiens, UniProt P06493); assay: CDK inhibition assay, cdk1/cyclin B (CDC2) kinase, histone phosphorylation; format: biochemical
Sequence of cdk1/cyclin B (CDC2) (P06493 whole entry, species assumed): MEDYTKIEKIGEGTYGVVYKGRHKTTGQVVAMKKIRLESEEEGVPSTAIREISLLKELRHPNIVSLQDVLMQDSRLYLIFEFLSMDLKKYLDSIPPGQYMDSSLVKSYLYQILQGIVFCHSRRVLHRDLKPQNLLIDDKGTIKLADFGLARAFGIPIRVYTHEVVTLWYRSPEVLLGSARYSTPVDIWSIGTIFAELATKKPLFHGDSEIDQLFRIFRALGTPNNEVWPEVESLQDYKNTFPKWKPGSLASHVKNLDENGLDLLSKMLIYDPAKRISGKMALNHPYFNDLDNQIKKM
Sequence of cdk1/cyclin B (CDC2) (P14635 whole entry partner, species assumed): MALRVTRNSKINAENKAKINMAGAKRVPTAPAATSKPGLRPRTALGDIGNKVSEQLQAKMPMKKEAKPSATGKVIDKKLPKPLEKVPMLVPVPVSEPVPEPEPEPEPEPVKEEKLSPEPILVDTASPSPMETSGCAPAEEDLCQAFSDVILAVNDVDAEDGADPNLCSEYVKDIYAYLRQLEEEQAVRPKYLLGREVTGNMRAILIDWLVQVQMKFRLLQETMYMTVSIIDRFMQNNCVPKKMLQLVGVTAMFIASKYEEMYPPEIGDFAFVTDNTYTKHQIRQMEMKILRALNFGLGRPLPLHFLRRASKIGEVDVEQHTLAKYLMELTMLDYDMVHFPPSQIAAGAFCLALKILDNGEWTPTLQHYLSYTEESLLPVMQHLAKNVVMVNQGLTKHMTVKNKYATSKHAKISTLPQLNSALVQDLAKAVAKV
How it was run: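 Radiometric endpoint kinase assay under linear conditions: histone (1 mg/ml) phosphorylated with 15 μM ATP and [γ-32P]ATP in 50 mM HEPES pH 7.4, 10 mM MgCl2, 1 mM DTT. IC50 obtained graphically from dose-response curves of % maximal activity, read by imaging analyzer.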

Compound	GI50 [1]	EC50 [2]	SENESCENT CELLS (%) HCA25 [3]	SENESCENT CELLS (%) HCA45 [3]	SENESCENT CELLS (%) HCA80 [3]	IC50 [4]	GI50 [5]	also measured
CC(C)c1n[nH]c2c(Nc3cccc(Cl)c3)nc(NCCO)nc12	18 µM	17 µM	4%	4%	38%	0.28 µM	29 µM	–
Cc1n[nH]c2c(NCc3ccccc3)nc(NCCO)nc12	45 µM	34 µM	–	–	–	29.3 µM	47 µM	–
Cc1n[nH]c2c(NCc3ccccc3)nc(NCCCO)nc12	40 µM	28 µM	–	–	–	5.8 µM	41 µM	–
CC(C)c1n[nH]c2c(Nc3cccc(Cl)c3)nc(NC3CCC(N)CC3)nc12 (stereo not drawn)	0.5 µM	0.5 µM	4%	5%	35%	0.012 µM	1.3 µM	–
Cc1n[nH]c2c(NCc3ccccc3)nc(N(CCO)CCO)nc12	35 µM	25 µM	–	–	–	8.1 µM	40 µM	–
CN(Cc1ccc(O)c(O)c1)c1ncnc2cn[nH]c12	–	–	4%	4%	22%	–	–	–
5-(2-hydroxyethylthio)-671-phenyl-2-hydroxyethylamino-3-isopropylpyrazolo[4,3-d]pyrimidine [Compound 96]	–	–	–	–	–	–	–	IC50 [6]: 8 ± 0.5 µM; Effectiveness on KG1 compared with normal PBMC [7]: significantly more effective on KG1 than on normal PBMC; IC50 [7]: 9 ± 0.4 µM; IC50 [8]: 10 ± 1.2 µM; IC50 ([9]; cell free system (Table 8)): 5.8 µM
5-(3-hydroxypropylamino)-7-[N-(3,4-dihydroxybenzyl-N-methyl]amino-isopropylpyrazolo[4,3-d]pyrimidine [Compound 42]	–	–	–	–	–	–	–	IC50 [6]: 5.9 ± 2.9 µM; IC50 [7]: 10.7 ± 0.3 µM; IC50 [8]: 13 ± 2.1 µM; IC50 ([9]; cell free system (Table 8)): 2.6 µM
5-(3-hydroxypropylamino)-7[N-(3,4-dihydroxybenzyl-N-methyl]amino-3-isopropylpyrazolo[4,3-d]pyrimidine [Compound 50]	–	–	–	–	–	–	–	IC50 [6]: 15 ± 7.3 µM; IC50 [7]: 21 µM; IC50 [8]: 21 µM
5-(5-cyanopentyl)-7-[(R,S)-(1-phenyl-2-hydroxyethyl)amino]-9-isopropylpurine [Compound 123]	–	–	–	–	–	–	–	IC50 [6]: 33 ± 4.4 µM; IC50 [7]: 42 ± 4.8 µM; IC50 [8]: 42.5 ± 6 µM; IC50 ([9]; cell free system (Table 8)): 33 µM
5-(hexylamino)-7-[N-(3,4-dihydroxybenzyl-N-methyl]amino-isopropylpyrazolo[4,3-d]pyrimidine [Compound 41]	–	–	–	–	–	–	–	IC50 [6]: 10 ± 2 µM; IC50 [7]: 15.3 ± 2.4 µM; IC50 [8]: 14 ± 3.2 µM; IC50 ([9]; cell free system (Table 8)): 1 µM
Cc1n[nH]c2c(NCc3ccccc3)nc(NCCN)nc12 [2-aminoethylamino / benzylamino / methyl]	35 µM	14.7 µM	–	–	–	15 µM	41 µM	–
CC(C)c1n[nH]c2c(NCc3ccccc3)nc(NCCCO)nc12 [Compound 7, 5-(3-hydroxypropylamino)-7-benzylamino-3-isopropylpyrazolo[4,3-d]pyrimidine]	–	–	–	–	–	–	–	IC50 ([6]; Homo sapiens, Lymphocyte): 9 ± 0.2 µM; IC50 ([7]; Homo sapiens, KG-1): 25 ± 4.4 µM; IC50 ([8]; Homo sapiens, MOLT-3): 24 ± 2.2 µM; IC50 [9]: 0.2 µM; IC50 ([9]; cell free system (Table 8)): 1 µM
CCC(CO)Nc1nc(NCc2ccc(O)c(O)c2)c2ncn(C(C)C)c2n1 (stereo not drawn) [Compound 243, 2-(1-ethyl-2-hydroxyethylamino)-6(3,4-dihydroxybenzylamino)-9-isopropylpurine]	–	–	–	–	–	–	–	IC50 ([6]; Homo sapiens, Lymphocyte): 9 ± 6.6 µM; IC50 ([8]; Homo sapiens, MOLT-3): 9 ± 1.2 µM
Nc1c(Cl)ccc(CNc2ncnc3cn[nH]c23)c1N [H / 2,3-diamino-4-chlorobenzylamine / H]	–	–	3%	3%	18%	–	–	–
CC(=O)c1ccccc1CNc1ncnc2cn[nH]c12 [H / 2-acetylbenzylamino / H]	–	–	3%	5%	28%	–	–	–
Nc1cc(CNc2ncnc3cn[nH]c23)ccc1Cl [H / 3-amino-4-chlorobenzylamine / H]	–	–	4%	5%	21%	–	–	–
Clc1ccc(Nc2ncnc3cn[nH]c23)cc1 [H / 4-chloroanilino / H]	–	–	3%	6%	27%	–	–	–
